Values after ≈ are worked out from the molar mass of the structure shown. Where two headings read alike, the source gives them in different places.
Assay: Determination of solubility of monomers in PBS (HPLC of filtrate against calibration curve)
Type: physicochemical
Conditions: monomer in PBS (pH 7.4), filtered; for solubility at 2 h: aqueous buffer, thermodynamic from solid
Experimental: About 30 mg of the monomer and 2 mL of PBS (pH 7.4) were added to a 2 dram vial. The vial was agitated on a vortex mixer for 2 h. If all the solid dissolved, more solid was added and agitation was continued. The mixture was filtered using a syringe filter to remove undissolved monomer. The clear filtrate was analyzed by HPLC by injecting 5 microliter of the filtrate. The area of the peak obtained was measured. A calibration curve was obtained by injecting known concentration of the monomer in methanol and plotting concentration against the area of the peaks obtained. Using this calibration curve the solubility of the monomer in PBS at ambient temperature was determined.
To determine the solubility at 37° C., the vials were placed in an incubator at 37° C. for 2 h. The mixture was then quickly filtered using syringe filter and then diluted 2× with PBS to prevent precipitation of the monomer. The solubility is determined using procedures similar to that used at room temperature solubility.

[1] = ambient temperature / 25° C., agitated 2 h

Q: With `CCOC(=O)[C@H](CO)NC(=O)CCc1ccc(O)cc1` [DAT-serine ethyl ester, Desaminotyrosyl Serine Ethyl Ester] as the compound, how does the solubility at 2 h (ambient temperature / 25° C., agitated 2 h, read-out: Solubility, mg/mL, 25° C.) read?
A: 7.7 mg/mL (≈ 27.4 mM)

Q: What about the solubility at 2 h (incubator at 37° C. for 2 h, diluted 2× with PBS, read-out: Solubility, mg/mL, 37° C.) of the same compound?
A: 14.1 mg/mL (≈ 50.2 mM)

Q: With `CCOC(=O)C(Cc1ccc(Oc2ccc(O)cc2)cc1)NC(=O)CCc1ccc(O)cc1` (stereo not shown) [DAT-Thyronine ethyl ester] as the compound, how does the “Solubility, mg/mL, 25° C.” value [1] read?
A: <0.05 mg/mL

Q: Which “Solubility, mg/mL, 25° C.” value [1] does the source give for `CCOC(=O)C1CC(O)CN1C(=O)CCc1ccc(O)cc1` (stereo not drawn) [DAT-trans-Hydroxyproline ethyl ester, DAT-Hydroxyproline Ethyl Ester] here?
A: 12 mg/mL (≈ 39 mM)

Q: For `CCOC(=O)C(Cc1c[nH]c2ccc(O)cc12)NC(=O)CCc1ccc(O)cc1` (stereo not shown) [DAT-5-hydroxytryptophan ethyl ester, DAT-5-Hydroxytryptophan Ethyl Ester], which “Solubility, mg/mL, 25° C.” value [1] is on record?
A: 0.15 mg/mL (≈ 0.378 mM)

Q: What about the “Solubility, mg/mL, 37° C.” value (incubator at 37° C. for 2 h, diluted 2× with PBS) of the same compound?
A: 0.43 mg/mL (≈ 1.08 mM)

Q: Which “Solubility, mg/mL, 25° C.” value [1] does the source give for `CCOC(=O)[C@H](Cc1ccc(O)cc1)NC(=O)CCc1ccc(O)cc1` [DAT-tyrosine ethyl ester (DTE), DAT-tyrosine ethyl ester, reference compound] here?
A: 0.74 mg/mL (≈ 2.07 mM)

Source: patent US8461289B2, “Bioresorbable polymers synthesized from monomer analogs of natural metabolites” (Rutgers, The State University of New Jersey, priority 2006, dated 2013)
